# Measured values published in PMC11744668, “2-Cyanopyrimidine-Containing Molecules for N-Terminal Selective Cyclization of Phage-Displayed Peptides” (ACS Chemical Biology, 2025).
# “Also recorded” adds a separate entry of the source. Starred links: 1 amine or outer side, 2 acyl side, 3 side chain; linkers in the order of their positions; H or OH if unused. Positions of bridges follow the written chain, without caps; N, C: chain ends. Non-standard residues stand in square brackets, D forms with d. Residues, ends and D or L forms follow the SMILES beside them. No end group written: not given here. X2 = O=C([C@@H]1CSC(c2nccc(N[*:1])n2)=N1)[*:2]; Abu = CC[C@H](N)C(=O)O
# T1: ZNRF3 extracellular domain (ZNRF3-ECD) (Homo sapiens, UniProt Q9ULT6)
# T1 construct: The ZNRF3 ECD was expressed and characterized exactly as previously described; SUMO (N, cleaved yes); made in house; host or cells: E. coli BL21, co-expressing BirA
# T1 sequence (Q9ULT6 56-219 limits assumed): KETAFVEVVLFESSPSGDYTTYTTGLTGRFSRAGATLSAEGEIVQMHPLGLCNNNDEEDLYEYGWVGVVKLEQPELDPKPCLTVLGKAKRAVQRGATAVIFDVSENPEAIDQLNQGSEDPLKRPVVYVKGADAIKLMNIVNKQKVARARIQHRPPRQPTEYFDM
# T2: ZNRF3 extracellular domain (biotinylated) (UniProt Q9ULT6 56-219, biotin (on the Avi-Tag; co-expression with BirA and 50 uM biotin))
# T2 construct: ZNRF3, extracellular domain; also called ZNRF3-ECD; ZNRF3 ECD; source: E. coli (BL21), co-expressed with BirA, purified (Ni-NTA, SUMO protease, second Ni-NTA, SEC Superdex 75); not shown: Avi-Tag, N-terminal, kept
# T2 sequence (looked up): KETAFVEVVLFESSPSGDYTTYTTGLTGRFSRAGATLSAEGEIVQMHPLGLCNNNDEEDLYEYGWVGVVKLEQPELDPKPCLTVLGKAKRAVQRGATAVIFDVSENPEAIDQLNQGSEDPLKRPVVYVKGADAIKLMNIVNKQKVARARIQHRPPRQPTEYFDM
# Assays:
# [1] = target: T1, ZNRF3 extracellular domain (ZNRF3-ECD); assay: Phage selection against ZNRF3-ECD, NGS enrichment, mCAmCP-cyclized library; assay type: binding
# Description: In addition to simply ensuring the cyclization potential on phage, we also looked to investigate the selection differences using two different linkers to macrocyclize the same initial peptide library. ZNRF3 is a membrane protein that contains an intracellular E3 ligase domain and has previously shown potential in promoting degradation of oncogenic membrane proteins, such as PDL1.[32] ZNRF3 also plays a major role in the regulation of the Wnt signaling cascade, which can modulate a variety of cell processes related to oncogenesis and cell differentiation.[33]−[36] […] Because it has an extracellular domain that can be easily accessible to macrocyclic peptides, we envisioned that a selection against the extracellular domain for ZNRF3 (ZNRF3-ECD) would afford peptides that could potentially be used in the development of proteolysis-targeting chimeras (PROTACs) for a variety of membrane proteins. We expressed and characterized a biotinylated ZNRF3-ECD using an Avi-Tag on the […] to facilitate the selection using streptavidin magnetic beads, as has been previously described (Figure S20).[38] […] To avoid the potential for enriching peptides that bind to the streptavidin resin, we alternated loading the protein using streptavidin and NHS-functionalized magnetic beads for the first three rounds of selection (Figure 5).
# The purified phage library (10^11 to 10^12 cfu) in binding buffer was incubated with 1 mM TCEP at 37 °C. After 30 min, the linker (pCAmCP or mCAmCP, 10 mM in DMSO) was added to a final concentration of 100 μM. The solution was incubated for 24 h at RT with slow rotation. The library was then directly used for affinity selection without further purification.
# Streptavidin-coated magnetic beads (100 μL, 50% slurry, Cytiva Sera-Mag) were transferred to a 1.5 mL tube, washed three times with 1 mL of binding buffer (10 mM HEPES, 150 mM NaCl, 10 mM MgCl2, and 1 mM KCl, pH 7.4), resuspended in 100 μL of binding buffer, and split into two tubes. […]
# [2] = target: T1, ZNRF3 extracellular domain (ZNRF3-ECD); assay: Biolayer interferometry (BLI) binding to immobilized biotinylated ZNRF3-ECD; settings: pH 7.5, dissociation over 5 min
# Procedure: The ZNRF3 ECD was expressed and characterized exactly as previously described.[38] Plasmid pET28a-SUMO-ZNRF3-Avi was cotransformed into E. coli (BL21) along with a plasmid expressing BirA. The cells were then inoculated into 2× YT containing 50 μg/mL kanamycin and 34 μg/mL chloramphenicol and grown at 37 °C until OD = 0.5. Expression was then induced by the addition of 1 mM IPTG and 50 μM biotin, and then the protein was expressed for 18 h at 16 °C. The cells were then pelleted (3750g, 15 min) and then resuspended in buffer A (50 mM Tris-HCl, 10% glycerol, 150 mM NaCl, and 25 mM imidazole, pH 7.5, 20 mL/liter of expression). The cells were then lysed by sonication (1 s on, 1 s off, 5 min, 60% A, repeated once), and the lysate was clarified by centrifugation (25,000g, 20 min). The supernatant was then incubated with a Ni-NTA column for 45 min at 4 °C. The column was then washed with 5 CV of buffer A before being eluted using 2 CV of buffer B (buffer A + 240 mM imidazole). The elution was then concentrated using an Amicon centrifugal filter before being desalted into buffer A on a HiPrep 26/10 column. The SUMO tag was then cleaved by the addition of 30 μg/mL SUMO protease and incubation for 48 h at 4 °C. The protein was then loaded onto a second Ni-NTA column for 45 min at 4 °C, and the flowthrough was collected and concentrated to 1 mL by centrifugation. Pure protein was then isolated using size exclusion chromatography (HiLoad 16/600, Superdex 75 pg) in buffer C (50 mM Tris-HCl, pH 7.5, 10% (v/v) glycerol, 150 mM NaCl, and 0.5 mM EDTA). Pure protein was stored in storage buffer (50 mM Tris-HCl, pH 7.5, 50% (v/v) glycerol, and 150 mM NaCl) at −80 °C before being used for assays.
# Biolayer interferometry (BLI) experiments were performed using streptavidin-coated biosensors (Sartorius Bio) on an Octet R8 biolayer interferometer (Sartorius Bio). All experiments were performed in assay buffer (10 mM HEPES, 150 mM NaCl, and 0.01% Tween 20, pH 7.5). Biotinylated ZNRF3 (28 μg/mL in assay buffer) was loaded onto the sensor to 4 nm of loading over 10 min, and then the sensors were quenched for one min with a 1% BSA solution in assay buffer. Peptides were serially diluted in assay buffer containing 0.8% DMF, and the association and dissociation to ZNRF3 were measured over 3 and 5 min, respectively. Between each experiment, sensors were regenerated using 10 mM glycine, pH 1.5. Binding curves were double-referenced against a protein-only sensor and a parallel unloaded sensor to correct for any nonspecific binding to the sensors. All curves were fit in the Octet Kinetic Analysis program (Sartorius Bio) using a 1:1 protein/ligand binding model.
# [3] = Solubility observation for synthesized peptides; assay type: physicochemical; settings: observed at synthesis / BLI testing
# [4] = Chloroacetamide addition kinetics with N-terminal Abu peptide CGK-5Abu; settings: 500 μM peptide; CGK-5Abu vs CGK-5
# Description: While pCAmCP and mCAmCP gave efficient cyclization of the peptide fusion of sfGFP, we looked to further investigate the specificity of the reaction using peptide kinetic assays. To do this, we first established reactivity of the compounds with a model peptide (CGK-5, Figures 3A and S16) that was composed of two cysteines flanking a region tuned for solubility in buffer (GGKGG) and with a tryptophan residue on the C-terminus for UV absorbance. […] To test the specificity of the reaction for the N-terminal cysteine, we synthesized a peptide analogue (CGK-5Abu, Figures 3D–F and S17) that contained 2-aminobutyric acid in place of the N-terminal cysteine. […] Since these reactions occurred at 500 μM of peptide to allow for analysis on the HPLC, we envision this difference will likely be exaggerated when using lower peptide/protein concentrations. Although it is unlikely at neutral pH, the chloroacetamide moiety can possibly react with nucleophilic amino acids other than cysteine. […]
# The peptide (CGK-5 or CGK-5Abu, 5 mM stock in water) was diluted to 500 μM in ammonium bicarbonate buffer (50 mM, pH 7.5) containing 1.2 mM TCEP. […] Following dilution with 20 μL of water, the sample was then analyzed on a Shimadzu HPLC with an LCMS-2020 mass spectrometer attached (10–40% ACN gradient in H2O over 6 min, 0.1% formic acid, 1 mL/min flow rate, Shimadzu C18 250 × 4.6 mm, 5 μm). […]
# [5] = target: T2, ZNRF3 extracellular domain …; assay: BLI; biotinylated ZNRF3-ECD loaded on streptavidin biosensors (Octet R8); peptides serially diluted in 10 mM HEPES, 150 mM NaCl, 0.01% Tween 20, pH 7.5 with 0.8% DMF; association 3 min, dissociation 5 min; double-referenced; 1:1 binding model; settings: both partners purified
molecule,measurement,setting,value
CSCC[C@@H]1NC(=O)[C@H](CC(C)C)NC(=O)[C@H](CC(N)=O)NC(=O)[C@H](CCC(=O)O)NC(=O)[C@H](Cc2c[nH]c3ccccc23)NC(=O)[C@H](CC(N)=O)NC(=O)[C@H](CC(C)C)NC(=O)[C@H](CCCNC(=N)N)NC(=O)[C@H](CC(C)C)NC(=O)[C@H](Cc2ccccc2)NC(=O)[C@@H]2CSC(=N2)c2nccc(n2)NC(=O)CSC[C@@H](C(N)=O)NC(=O)[C@H](Cc2c[nH]c3ccccc23)NC(=O)[C@@H]2CCCN2C1=O [Peptide Z28S1] ({CH2CO}-[X2]FLRLNWENLMPWC-NH2; thioether N-14; C-terminus assumed),fold enrichment after round 1,[1]; after round 1,"over 32,000 -fold"
same,share of total sequences after round 4,"[1]; round 4, 84,190 total sequences",81%
same,off rates (in words),[2],high off rates; also recorded: extremely quick off rates
"CELVMMHGYWWRQC (also: sidechain bridge or staple (positions not given here)) [Peptide Z28S2, peptide enriched in the mCAmCP selection]",solubility (in words),[3],poor solubility during synthesis
same,fold increase in abundance after round 2,[1]; after round 2,~5000 -fold
"[Abu]GGKGGCGW [CGK-5Abu, peptide analogue with 2-aminobutyric acid in place of the N-terminal cysteine]","rate of reaction relative to the cyclization reaction, fold slower",[4],~3 -fold slower
[Abu]HLSPLEAWRQKL[Abu] [Z27S1Abu (linear analogue of Z27S1)],Kd,[5],2600 nM
